Data taken from patent US7199216B1, “Peptide constructs for treating autoimmune and related diseases” (Cel-Sci Corporation, priority 1999, dated 2007).
No end group written: not given here.

Experiments:
[1] = Immunogenicity of TCBL peptides judged by development of antibodies that react to the peptides; assay type: in vivo; conditions: judged by the lack of developing antibodies that react to these peptides
From the text: (§1) The antigenic portion My-1 of these constructs is immunogenic in several strains of mice and in rabbits.

several strains of mice = assay: Immunogenicity in mice; assay type: in vivo
From the text: as §1

A/J strain of mice = conditions: injected in the presence of adjuvant; cited from earlier work
rabbits = assay: Immunogenicity in rabbits; assay type: in vivo
From the text: as §1

Substance	immunogenicity [1]	immunogenicity (several strains of mice)	induction of myocarditis (A/J strain of mice)	immunogenicity (rabbits)
Asn Gly Gln Glu Glu (Xaa) Ala Gly Val Val Ser Thr Gly Leu Ile [m-G]	only poorly immunogenic			
Asp Leu Leu Lys Asn Gly Glu Arg (Xaa) Glu Lys Val Glu [m-J]	only poorly immunogenic			
DSAFDVLSFTAEEKAGVYK [myocardiogenic peptide derived from murine cardiac myosin heavy chain (amino acids 334–352)]		immunogenic	induce severe myocarditis	immunogenic
NGQEEKAGVVSTGLI (peptide G) [non-modified TCBL from the beta-2 domain of HLA/MHC class II molecule]	only poorly immunogenic			
